Here are results for 6 molecules from patent US9050295B2, “Composition for treatment of tuberculosis” (ETH Zurich, priority 2007, dated 2015).

What is called IC50 is the midpoint of a concentration-inhibition curve.

One series has as its target EthR-OethR interaction (Mycobacterium bovis, UniProt Q7TVI1). In kind it is binding, M. tuberculosis. The note with it: ELISA, E. coli cell lysate, OD450. (In an ELISA, binding on a coated surface is turned into a signal by an enzyme label.)
For the next series, the system named is M. tuberculosis H37Rv. In kind it is cell-based.
The conditions of series [1]: mouse, in vivo, ip.
A further series has as its system M. bovis BCG. In kind it is cell-based.
For a further series, the system named is E-ETR interaction. In words: Specificity control ELISA, macrolide-dependent repressor E and operator ETR. In kind it is binding. The note with it: ELISA set-up as FIG. 2B. The method, then:
To exclude that 2-phenylethyl butyrate indiscriminatingly modulates protein-DNA interactions the macrolide-dependent repressor-operator configuration is challenged with this compound in an identical ELISA set-up as shown in FIG. 2B. The E-ETR interaction is insensitive to 2-phenylethyl butyrate (PEB) and can exclusively be abolished in the presence of erythromycin (EM, 5 μg/ml).
The repressor protein E binds to its cognate operator sequence ETR and is released thereof in the presence of macrolide antibiotics like erythromycin as described in U.S. Pat. No. 7,273,723.
EthR-his6 is produced as previously described for E-his6 [Weber, C. C. et al., supra] with the exception that the biotinylated operator sequence (OethR) is incubated with a 100 μl streptavidin agarose bead suspension (Novagen, Madison, Wis., USA, cat. no. 69203) for 1 h at 4° C. while rotating.

The target in series [2] is T1, EthR-VP16 binding to OethR (Mycobacterium bovis, UniProt Q7TVI1). In words: cell-based. In kind it is cell-based, M. tuberculosis.
Series [3] has as its target T1, EthR-VP16 binding to OethR. In kind it is in vivo. The note with it: mice, 625 μl/kg injected 1 and 25 h post implantation, serum at 48 h.
In another series the test system is HEK-293. The note with it: HEK-293 with constitutive SEAP expression, 0-3.2 mM, 48 h.
Setting [4] is: HEK-293 with EthR-based gene circuit, 0-3.2 mM, 48 h.

Entries after “also recorded” stand apart in the source; their conditions may differ.

T1 sequence (Q7TVI1 whole entry, looked up): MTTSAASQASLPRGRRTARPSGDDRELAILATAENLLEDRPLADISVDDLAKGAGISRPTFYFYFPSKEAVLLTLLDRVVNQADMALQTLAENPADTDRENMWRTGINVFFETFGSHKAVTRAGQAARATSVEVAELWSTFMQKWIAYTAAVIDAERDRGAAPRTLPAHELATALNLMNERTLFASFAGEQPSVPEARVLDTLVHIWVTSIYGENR
Sequence of EthR-OethR interaction (Q7TVI1 whole entry, looked up): as above

Take `CCCC(=O)OCCc1ccccc1` [2-Phenylethyl butyrate]: the “modulation of the EthR-OethR interaction” value at EthR-OethR interaction was “exclusively and specifically modulates the EthR-OethR interaction”. For the same molecule, in the series with M. tuberculosis H37Rv, the “growth inhibition of M. tuberculosis H37Rv in combination with ethionamide” value is listed as “dose-dependently inhibited; also recorded: Synergistic effect” and the “growth inhibitory effect alone, M. tuberculosis H37Rv” value is “does not show any growth inhibitory effect”. Besides, the “inflammation at the injection site” value in series [1] is reported as “no inflammation at the injection site”. Further, the “growth inhibition of M. bovis BCG in combination with ethionamide” value in the series on M. bovis BCG (0.5 and 2 mM with sub-inhibitory ethionamide 0.25 and 0.5 μg/ml) is listed as “dose-dependently inhibited; also recorded: Synergistic effect”. Also, in the series on M. bovis BCG (without ethionamide), the “growth inhibitory effect alone, M. bovis BCG” value was “does not show any growth inhibitory effect”. For the same molecule, the E-ETR interaction entry with E-ETR interaction (2-phenylethyl butyrate) was “insensitive”. Moreover, the IC50 in series [2] is 500 µM. For the same molecule, in series [2] (setting [4]), the SEAP expression result was “significant decrease in SEAP expression”. Moreover, the SEAP serum levels in series [3] is listed as 0.21±0.03 U/L.
Consider `CC(=O)OCc1ccccc1` [Benzyl acetate], for which, in series [2] (setting [4]), the SEAP expression entry is on record as “significant decrease in SEAP expression”.
Consider `CCCCCCCCCCCCCCCCOC(=O)CCCCCCC` [Hexadecyl octanoate, reference compound], for which the SEAP expression entry in series [2] (HEK-293 containing pWW489 and pWW491, 10 mM) is given as “fails to decrease SEAP expression”.
Take `CC(=O)CCc1ccccc1` [4-Phenyl-2-butanone]: the SEAP expression entry in series [2] (setting [4]) is recorded as “significant decrease in SEAP expression”. The cytotoxicity entry in the series on HEK-293 was “does not correlate with cytotoxicity”.
On to `CC[C@H]1OC(=O)[C@H](C)[C@@H](O[C@H]2C[C@@](C)(OC)[C@@H](O)[C@H](C)O2)[C@H](C)[C@@H](O[C@@H]2O[C@H](C)C[C@H](N(C)C)[C@H]2O)[C@](C)(O)C[C@@H](C)C(=O)[C@H](C)[C@@H](O)[C@]1(C)O` [erythromycin, reference compound], for which, in the series on E-ETR interaction (5 μg/ml), the E-ETR interaction entry was “abolished”.
As to `CCC(=O)OCCCc1ccccc1` [3-Phenylpropyl propionate], the SEAP expression entry in series [2] (setting [4]) was “significant decrease in SEAP expression”.
